Measurements taken from ChEMBL document CHEMBL1201862, “PubChem BioAssay data set” (2004).
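Dose response: 5 concentrations. Exposure: 48 h. Format: 96-well plates. Endpoint: linear interpolation; highest concentration if not reached. GI50 is the concentration that inhibits growth by half.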 The source made the active and inactive calls. No stated cut-off is given here; in the data, active = GI50 up to about 1.1 µM and inactive = higher.

Experiments:
Test in all cases: NCI-60 cell line screen, 48 h
SN12C = tested on: SN12C
COLO 205 = tested on: COLO 205
M19-MEL = tested on: M19-MEL
HT-29 = tested on: HT-29
CAKI-1 = tested on: CAKI-1
SF-295 = tested on: SF-295
UACC-257 = tested on: UACC-257
CCRF-CEM = tested on: CCRF-CEM
IGROV-1 = tested on: IGROV-1
HOP-92 = tested on: HOP-92
DLD-1 = tested on: DLD-1
NCI-H522 = tested on: NCI-H522
SNB-75 = tested on: SNB-75
RXF 393 = tested on: RXF 393

Measured: GI50

CCCCCCCCCCCCCCCCCC(=O)NCCCNCCCNC(=O)CCCCCCCCCCCCCCCCC
inactive: SN12C > 100 µM | COLO 205 > 100 µM | M19-MEL > 100 µM | HT-29 > 100 µM | CAKI-1 > 100 µM | SF-295 > 100 µM | UACC-257 > 100 µM | CCRF-CEM > 100 µM | IGROV-1 > 100 µM | HOP-92 > 100 µM | DLD-1 > 100 µM

COc1ccc2c3c(n(Cc4ccccc4)c(=O)c2c1)-c1cc(OC)c(OC)cc1C3C (stereo not drawn)
inactive: SN12C 14.7 µM | NCI-H522 9.08 µM | COLO 205 41.6 µM | M19-MEL 31.4 µM | HT-29 25.7 µM | CAKI-1 28.1 µM | SF-295 11.6 µM | UACC-257 69.8 µM | CCRF-CEM > 89.5 µM | IGROV-1 37.6 µM | HOP-92 14.4 µM | DLD-1 50.9 µM | SNB-75 13.6 µM | RXF 393 12.3 µM

COC(=O)c1ccccc1NC(=O)C(=O)NNC(=O)c1ccncc1
inactive: SN12C > 100 µM | NCI-H522 > 100 µM | COLO 205 > 100 µM | M19-MEL > 100 µM | HT-29 > 100 µM | CAKI-1 > 100 µM | SF-295 > 100 µM | UACC-257 > 100 µM | CCRF-CEM > 100 µM | IGROV-1 > 100 µM | HOP-92 > 100 µM | DLD-1 > 100 µM | SNB-75 > 100 µM | RXF 393 > 100 µM

Clc1ccc(C2=NOC3C4CCC(C4)C23)cc1 (stereo not drawn)
inactive: SN12C > 100 µM | NCI-H522 59.8 µM | COLO 205 > 100 µM | M19-MEL > 100 µM | HT-29 > 100 µM | CAKI-1 > 100 µM | SF-295 73.1 µM | UACC-257 > 100 µM | CCRF-CEM > 100 µM | IGROV-1 > 100 µM | HOP-92 > 100 µM | DLD-1 > 100 µM | SNB-75 > 100 µM

O=C1C2=C(CCCC2)Nc2cccc3ncn1c23
inactive: SN12C > 100 µM | NCI-H522 > 100 µM | COLO 205 > 100 µM | M19-MEL > 100 µM | SF-295 > 100 µM | UACC-257 > 100 µM | CCRF-CEM > 100 µM | HOP-92 > 100 µM | DLD-1 > 100 µM | RXF 393 > 100 µM

Cc1c(C(Cc2ccccc2N(C)C(=O)/C=C\C(=O)O)c2c[nH]c3ccccc23)c2ccccc2n1C (stereo not drawn)
inactive: SN12C 16 µM | NCI-H522 15.1 µM | COLO 205 14.5 µM | M19-MEL 15.7 µM | HT-29 15.5 µM | CAKI-1 19.3 µM | SF-295 14.5 µM | UACC-257 15.7 µM | CCRF-CEM 14.9 µM | IGROV-1 18.2 µM | DLD-1 18.2 µM | SNB-75 16.5 µM | RXF 393 14.2 µM

CC(C)(C)c1cc(CCC(=O)Nc2ccc(Cl)cc2)nc(S)n1
inactive: SN12C > 100 µM | NCI-H522 > 100 µM | COLO 205 > 100 µM | M19-MEL > 100 µM | HT-29 > 100 µM | CAKI-1 > 100 µM | SF-295 > 100 µM | UACC-257 > 100 µM | CCRF-CEM > 100 µM | IGROV-1 > 100 µM | DLD-1 > 100 µM | SNB-75 > 100 µM | RXF 393 > 100 µM

CCOC(=O)NC(=O)c1cn(CC(=O)NCC(=O)NCC(=O)N2CCN(CCn3c(C)nc(C(N)=O)c3N)CC2)c(=O)[nH]c1=O
inactive: SN12C > 100 µM | COLO 205 > 100 µM | M19-MEL > 100 µM | HT-29 > 100 µM | CAKI-1 > 100 µM | SF-295 > 100 µM | UACC-257 > 100 µM | CCRF-CEM > 100 µM | IGROV-1 > 100 µM | HOP-92 > 100 µM | DLD-1 > 100 µM | SNB-75 > 100 µM

Cc1cc2c(cc1C)[n+]([O-])c(C(=O)/C=C/c1ccc(Cl)cc1)c(C)[n+]2[O-]
inactive: SN12C 32.8 µM | NCI-H522 19.4 µM | COLO 205 20.5 µM | M19-MEL 35.3 µM | HT-29 30.3 µM | CAKI-1 32.3 µM | SF-295 22 µM | UACC-257 27.3 µM | CCRF-CEM 32.9 µM | IGROV-1 24.5 µM | HOP-92 28.6 µM | DLD-1 28.8 µM | SNB-75 19.6 µM

Brc1ccc(/N=c2/nc3ccccn3n3nc(-c4ccccc4)cc23)cc1
inactive: SN12C 81.8 µM | NCI-H522 17.3 µM | COLO 205 > 100 µM | M19-MEL 43.6 µM | HT-29 75.5 µM | CAKI-1 15.9 µM | SF-295 34.8 µM | UACC-257 48.4 µM | CCRF-CEM > 100 µM | IGROV-1 > 100 µM | HOP-92 17.8 µM | DLD-1 14.7 µM | SNB-75 52.4 µM | RXF 393 14.9 µM

NC(=O)N1N=C2c3ccccc3SC[C@H]2[C@@H]1c1ccccc1
inactive: SN12C 33.8 µM | NCI-H522 > 10 µM | COLO 205 20.7 µM | M19-MEL 34.6 µM | HT-29 19.7 µM | SF-295 25.1 µM | UACC-257 18.4 µM | CCRF-CEM 23.1 µM | IGROV-1 26.6 µM | DLD-1 21.4 µM | RXF 393 2.26 µM

CCc1ccccc1NC(=O)C(=O)CC(=O)c1sc(Nc2ccccc2)nc1C
inactive: SN12C > 100 µM | NCI-H522 73.5 µM | COLO 205 > 100 µM | M19-MEL > 100 µM | HT-29 > 100 µM | CAKI-1 85.9 µM | SF-295 > 100 µM | UACC-257 > 100 µM | CCRF-CEM 32.1 µM | IGROV-1 > 100 µM | HOP-92 > 100 µM | DLD-1 > 100 µM | SNB-75 67.9 µM | RXF 393 > 100 µM

O=c1[nH]nc2ccccc2c1Cl
inactive: SN12C 17.6 µM | COLO 205 11.4 µM | M19-MEL 6.92 µM | HT-29 6.68 µM | CAKI-1 3.18 µM | SF-295 20.5 µM | UACC-257 10.2 µM | CCRF-CEM 6.14 µM | IGROV-1 12.6 µM | HOP-92 3.08 µM | DLD-1 10.4 µM | SNB-75 10.7 µM

NC(=O)c1ccccc1NC(=O)C(=O)C(C(=O)c1ccc2ccccc2c1)C1OC(=O)c2ccccc21 (stereo not drawn)
inactive: SN12C 15.9 µM | NCI-H522 14 µM | COLO 205 11.7 µM | M19-MEL 11.1 µM | HT-29 27.8 µM | CAKI-1 7.67 µM | UACC-257 13.3 µM | CCRF-CEM 10.3 µM | IGROV-1 14.8 µM | HOP-92 6.79 µM | SNB-75 8.15 µM | RXF 393 2.09 µM

O/N=C1/CCCC/C1=C\c1ccc(Cl)c(Cl)c1
inactive: SN12C 18.4 µM | COLO 205 19.7 µM | M19-MEL 37.3 µM | HT-29 18.8 µM | CAKI-1 32.5 µM | SF-295 40.5 µM | CCRF-CEM 18.9 µM | IGROV-1 38 µM | DLD-1 32.9 µM | SNB-75 20.7 µM

Cc1c(Cl)ccc2c1NC(=O)C2(O)C1Cc2ccccc2C1=O (stereo not drawn)
inactive: SN12C > 100 µM | NCI-H522 > 100 µM | COLO 205 > 100 µM | M19-MEL > 100 µM | HT-29 > 100 µM | CAKI-1 > 100 µM | SF-295 > 100 µM | UACC-257 > 100 µM | CCRF-CEM 26.1 µM | IGROV-1 > 100 µM | HOP-92 > 100 µM | DLD-1 > 100 µM | RXF 393 57.9 µM

CCCO/S(=N\S(=O)(=O)c1ccccc1)c1ccccc1[N+](=O)[O-] (stereo not drawn)
inactive: SN12C > 100 µM | NCI-H522 > 100 µM | COLO 205 > 100 µM | M19-MEL > 100 µM | HT-29 > 100 µM | CAKI-1 > 100 µM | SF-295 > 100 µM | UACC-257 > 100 µM | CCRF-CEM > 100 µM | IGROV-1 > 100 µM | DLD-1 > 100 µM | SNB-75 > 100 µM

[N-]=[N+]=NC(c1cn(C2CC(O)C(CO)O2)c(=O)[nH]c1=O)C(Cl)Br (stereo not drawn)
inactive: SN12C > 100 µM | NCI-H522 > 100 µM | COLO 205 > 100 µM | M19-MEL > 100 µM | HT-29 > 100 µM | CAKI-1 > 100 µM | SF-295 > 100 µM | CCRF-CEM 50.8 µM | HOP-92 > 100 µM | DLD-1 > 100 µM | SNB-75 > 100 µM | RXF 393 > 100 µM

COC(=O)C(=O)C(CC(=O)Nc1ccc(C)cc1)C(=O)OC (stereo not drawn)
inactive: SN12C > 100 µM | NCI-H522 > 100 µM | M19-MEL > 100 µM | HT-29 > 100 µM | CAKI-1 > 100 µM | SF-295 > 100 µM | UACC-257 > 100 µM | CCRF-CEM > 100 µM | IGROV-1 > 100 µM | HOP-92 > 100 µM | DLD-1 > 100 µM | RXF 393 > 100 µM

Clc1ccccc1C1=NN(c2ccccc2)C2c3ccccc3OCC12 (stereo not drawn)
inactive: NCI-H522 > 100 µM | COLO 205 > 100 µM | M19-MEL > 100 µM | HT-29 58.5 µM | SF-295 79.6 µM | UACC-257 79.3 µM | CCRF-CEM 64.9 µM | IGROV-1 > 100 µM | HOP-92 39.6 µM | DLD-1 > 100 µM | SNB-75 > 100 µM | RXF 393 > 100 µM

COc1ccc2[nH]c3c(O)nncc3c2c1
inactive: NCI-H522 > 100 µM | COLO 205 > 100 µM | M19-MEL > 100 µM | HT-29 > 100 µM | SF-295 > 100 µM | UACC-257 > 100 µM | CCRF-CEM > 100 µM | IGROV-1 > 100 µM | HOP-92 35.1 µM | DLD-1 > 100 µM | SNB-75 16.4 µM
